Measurements: patent US9216991B2 (Ares Trading S.A., priority 2012, dated 2015)
Counter-ions that a name gives are not always drawn.

Target: T1, IRAK4 (Homo sapiens, UniProt Q9NWZ3)
T1 construct: His (N); TEV cleavage site (N)
T1 sequence (Q9NWZ3 1-460): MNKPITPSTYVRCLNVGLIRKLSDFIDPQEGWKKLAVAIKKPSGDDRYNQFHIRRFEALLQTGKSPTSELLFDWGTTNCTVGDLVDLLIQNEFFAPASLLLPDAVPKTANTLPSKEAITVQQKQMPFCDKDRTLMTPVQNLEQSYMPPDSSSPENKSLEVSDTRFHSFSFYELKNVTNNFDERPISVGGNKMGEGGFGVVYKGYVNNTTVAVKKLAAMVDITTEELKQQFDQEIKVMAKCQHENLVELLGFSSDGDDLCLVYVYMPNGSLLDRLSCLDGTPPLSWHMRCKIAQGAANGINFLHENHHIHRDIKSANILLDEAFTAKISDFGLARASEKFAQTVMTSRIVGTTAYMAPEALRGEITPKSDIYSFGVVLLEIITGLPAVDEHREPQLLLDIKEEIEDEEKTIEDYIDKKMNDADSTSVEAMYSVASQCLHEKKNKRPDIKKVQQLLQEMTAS
Experiment: IRAK4 Enzymatic Assay
Format: biochemical
Conditions: His-TEV-IRAK4 20 ng/well, ATP 2 μM, STK1-biotin peptide 300 nM, 3 hours at 30° C., FlashPlate radioactivity
In short: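 Radiometric FlashPlate readout: biotin-STK1 substrate (300 nM) captured on streptavidin after EDTA stop and washes. Reaction used His-TEV-IRAK4 (20 ng/well), 2 μM [^33P]-spiked ATP and compound (1 nM-20 μM), incubated 3 h at 30 °C in 50 mM HEPES pH 7.0, 10 mM MgCl2, 5 mM MnCl2, 2 mM DTT.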

Row | IC50 [nM] | SMILES
1 | 100 to 1000 | Cn1cc(-c2cccc(-c3ncc(-c4cnn(C5CCN(c6ccccc6F)CC5)c4)cn3)c2)cn1 [Example 175, 5-{1-[1-(2-Fluoro-phenyl)-piperidin-4-yl]-1H-pyrazol-4-yl}-2-[3-(1-methyl-1H-pyrazol-4-yl)-phenyl]-pyrimidine]
2 | 100 to 1000 | Cn1cc(-c2cccc(-c3ncc(-c4cnn(C5CCCOC5)c4)cn3)c2)cn1 (centres unmarked) [Example 221, 2-[3-(1-Methyl-1H-pyrazol-4-yl)-phenyl]-5-[1-(tetrahydro-pyran-3-yl)-1H-pyrazol-4-yl]-pyrimidine]
3 | 100 to 1000 | Cn1cc(-c2cccc(-c3ncc(-c4cnn(CC(=O)N5CC6CCC(C5)O6)c4)cn3)c2)cn1 [Example 94, 2-(4-{2-[3-(1-Methyl-1H-pyrazol-4-yl)-phenyl]-pyrimidin-5-yl}-pyrazol-1-yl)-1-(8-oxa-3-aza-bicyclo[3.2.1]oct-3-yl)-ethanone]
4 | 100 to 1000 | Cn1cc(-c2cccc(-c3ncc(-c4cnn(CC(=O)N5C6CCC5CC(O)C6)c4)cn3)c2)cn1 (centres unmarked) [Example 128, 1-(3-Hydroxy-8-aza-bicyclo[3.2.1]oct-8-yl)-2-(4-{2-[3-(1-methyl-1H-pyrazol-4-yl)-phenyl]-pyrimidin-5-yl}-pyrazol-1-yl)-ethanone]
5 | 1000 to 5000 | Cn1cc(-c2cccc(-c3ncc(-c4cn(C5CCOCC5)nc4C(=O)N4CC(O)C4)cn3)c2)cn1 [Example 153, (3-Hydroxy-azetidin-1-yl)-[4-{2-[3-(1-methyl-1H-pyrazol-4-yl)-phenyl]-pyrimidin-5-yl}-1-(tetrahydro-pyran-4-yl)-1H-pyrazol-3-yl]-methanone]
6 | 100 to 1000 | Cn1cc(-c2cccc(-c3ncc(-c4cnn(C5CCN(C(=O)CC(F)(F)F)CC5)c4)cn3)c2)cn1 [Example 114, 3,3,3-Trifluoro-1-[4-(4-{2-[3-(1-methyl-1H-pyrazol-4-yl)-phenyl]-pyrimidin-5-yl}-pyrazol-1-yl)-piperidin-1-yl]-propan-1-one]
7 | 1000 to 5000 | O=C(Cn1cc(-c2cnc(-c3cccc(-c4ccncc4)c3)nc2)cn1)N1CCCC1 [Example 43, 2-{4-[2-(3-Pyridin-4-yl-phenyl)-pyrimidin-5-yl]-pyrazol-1-yl}-1-pyrrolidin-1-yl-ethanone]
8 | < 100 | CC(=O)N1CCCC(n2cc(-c3cnc(-c4cccc(-c5cnn(C)c5)c4)nc3)cn2)C1 (stereo in doubt) [Example 274, 1-[3-((R)-4-{2-[3-(1-Methyl-1H-pyrazol-4-yl)-phenyl]-pyrimidin-5-yl}-pyrazol-1-yl)-piperidin-1-yl]-ethanone]
9 | 1000 to 5000 | CNC(=O)C(CCO)n1cc(-c2cnc(-c3cccc(-c4cnn(C)c4)c3)nc2)cn1 (centres unmarked) [Example 169, 4-Hydroxy-N-methyl-2-(4-{2-[3-(1-methyl-1H-pyrazol-4-yl)-phenyl]-pyrimidin-5-yl}-pyrazol-1-yl)-butyramide]
10 | 100 to 1000 | c1cc(-c2ccncc2)cc(-c2ncc(-c3cnn(C4CCNCC4)c3)cn2)c1 [Example 33, 5-(1-Piperidin-4-yl-1H-pyrazol-4-yl)-2-(3-pyridin-4-yl-phenyl)-pyrimidine hydrochloride]
11 | < 100 | Cn1cc(-c2cccc(-c3ncc(-c4cnn(C5CCC(C(=O)N6CCO[C@@H](CO)C6)CC5)c4)cn3)c2)cn1 (stereo partly drawn) [Example 266, ((R)-2-Hydroxymethyl-morpholin-4-yl)-[4-((S)-4-{2-[3-(1-methyl-1H-pyrazol-4-yl)-phenyl]-pyrimidin-5-yl}-pyrazol-1-yl)-cyclohexyl]-methanone]
12 | 100 to 1000 | Cc1cc(-c2cccc(-c3ncc(-c4cnn([C@@H]5CCCS(=O)(=O)C5)c4)cn3)c2)cnn1 (single isomer, unassigned) [Example 241]
13 | 100 to 1000 | CC(=O)N1[C@@H]2COC[C@H]1C[C@H](n1cc(-c3cnc(-c4cccc(-c5cnn(C)c5)c4)nc3)cn1)C2 [Example 193, exo-1-[7-(4-{2-[3-(1-Methyl-1H-pyrazol-4-yl)-phenyl]-pyrimidin-5-yl}-pyrazol-1-yl)-3-oxa-9-aza-bicyclo[3.3.1]non-9-yl]-ethanone]
14 | 100 to 1000 | Cn1cc(-c2cccc(-c3ncc(-c4cnn([C@H]5CC[C@@H](N)CC5)c4)cn3)c2)cn1 [Example 156, 4-(4-{2-[3-(1-Methyl-1H-pyrazol-4-yl)-phenyl]-pyrimidin-5-yl}-pyrazol-1-yl)-cyclohexylamine]
15 | 1000 to 5000 | Cn1cc(-c2cccc(-c3ncc(-c4cn(C)nc4CO)cn3)c2)cn1 [Example 155, (1-Methyl-4-{2-[3-(1-methyl-1H-pyrazol-4-yl)-phenyl]-pyrimidin-5-yl}-1H-pyrazol-3-yl)-methanol]
16 | 100 to 1000 | Cn1cc(-c2cccc(-c3ncc(-c4cnn(CC(=O)N5C6CCC5CC(O)C6)c4)cn3)c2)cn1 (centres unmarked) [Example 127, 1-(3-Hydroxy-8-aza-bicyclo[3.2.1]oct-8-yl)-2-(4-{2-[3-(1-methyl-1H-pyrazol-4-yl)-phenyl]-pyrimidin-5-yl}-pyrazol-1-yl)-ethanone]
17 | < 100 | CN(C)CCNC(=O)[C@H]1CC[C@H](n2cc(-c3cnc(-c4cccc(-c5cnn(C)c5)c4)nc3)cn2)CC1 [Example 171, 4-(4-{2-[3-(1-Methyl-1H-pyrazol-4-yl)-phenyl]-pyrimidin-5-yl}-pyrazol-1-yl)-cyclohexanecarboxylic acid (2-dimethylamino-ethyl)-amide]
18 | 100 to 1000 | Cc1cc(-c2cccc(-c3ncc(-c4cnn([C@H]5CC[C@H](C(=O)N(C)C)CC5)c4)cn3)c2)ccn1 [Example 229, Trans-4-(4-{2-[3-(2-Methyl-pyridin-4-yl)-phenyl]-pyrimidin-5-yl}-pyrazol-1-yl)-cyclohexanecarboxylic acid dimethylamide]
19 | < 100 | CO[C@@H]1CCN(C(=O)[C@H]2CC[C@H](n3cc(-c4cnc(-c5cccc(-c6cnn(C)c6)c5)nc4)cn3)CC2)C1 [Example 168, ((R)-3-Methoxy-pyrrolidin-1-yl)-trans-[4-(4-{2-[3-(1-methyl-1H-pyrazol-4-yl)-phenyl]-pyrimidin-5-yl}-pyrazol-1-yl)-cyclohexyl]-methanone]
20 | 100 to 1000 | Cn1cc(-c2cccc(-c3ncc(-c4cnn(C5CCS(=O)(=O)CC5)c4)cn3)c2)cn1 [Example 176, 5-[1-(1,1-Dioxo-hexahydro-1l6-thiopyran-4-yl)-1H-pyrazol-4-yl]-2-[3-(1-methyl-1H-pyrazol-4-yl)-phenyl]-pyrimidine]
21 | 100 to 1000 | CC(=O)N1CC[C@H](n2cc(-c3cnc(-c4cccc(-c5cnn(C)c5)c4)nc3)cn2)C1 [Example 126, 1-[(S)-3-(4-{2-[3-(1-Methyl-1H-pyrazol-4-yl)-phenyl]-pyrimidin-5-yl}-pyrazol-1-yl)-pyrrolidin-1-yl]-ethanone]
22 | 100 to 1000 | CCCn1cc(-c2cccc(-c3ncc(-c4cnn(C5CCNCC5)c4)cn3)c2)cn1 [Example 19, 5-(1-Piperidin-4-yl-1H-pyrazol-4-yl)-2-[3-(1-propyl-1H-pyrazol-4-yl)-phenyl]-pyrimidine hydrochloride]
23 | < 100 | COCCN(C)C(=O)[C@H]1CC[C@H](n2cc(-c3cnc(-c4cccc(-c5cnn(C)c5)c4)nc3)cn2)CC1 [Example 152, Trans-4-(4-{2-[3-(1-Methyl-1H-pyrazol-4-yl)-phenyl]-pyrimidin-5-yl}-pyrazol-1-yl)-cyclohexanecarboxylic acid (2-methoxy-ethyl)-methyl-amide]
24 | 100 to 1000 | COc1ccc(CCn2cc(-c3cnc(-c4cccc(-c5cnn(C)c5)c4)nc3)cn2)cc1OC [Example 96, 5-{1-[2-(3,4-Dimethoxy-phenyl)-ethyl]-1H-pyrazol-4-yl}-2-[3-(1-methyl-1H-pyrazol-4-yl)-phenyl]-pyrimidine]
25 | 100 to 1000 | Cn1cc(-c2cccc(-c3ncc(-c4cnn(C5C[C@H]6CC[C@@H](C5)N6CC(O)C(F)(F)F)c4)cn3)c2)cn1 (stereo partly drawn) [Example 118, 1,1,1-Trifluoro-3-[(1R,5S)-3-(4-{2-[3-(1-methyl-1H-pyrazol-4-yl)-phenyl]-pyrimidin-5-yl}-pyrazol-1-yl)-8-aza-bicyclo[3.2.1]oct-8-yl]-propan-2-ol]
26 | 100 to 1000 | CCOC1CC(N2CCC(n3cc(-c4cnc(-c5cccc(-c6cnn(C)c6)c5)nc4)cn3)CC2)C1(C)C (centres unmarked) [Example 112, 5-{1-[1-(3-Ethoxy-2,2-dimethyl-cyclobutyl)-piperidin-4-yl]-1H-pyrazol-4-yl}-2-[3-(1-methyl-1H-pyrazol-4-yl)-phenyl]-pyrimidine]
27 | 100 to 1000 | Cn1cc(-c2cccc(-c3ncc(-c4cnn([C@H]5CC[C@H](N6CCOC6=O)CC5)c4)cn3)c2)cn1 [Example 255, 3-[4-(4-{2-[3-(1-Methyl-1H-pyrazol-4-yl)-phenyl]-pyrimidin-5-yl}-pyrazol-1-yl)-cyclohexyl]-oxazolidin-2-one]
28 | 100 to 1000 | CN1CCN(C(=O)Cn2cc(-c3cnc(-c4cccc(-c5cnn(C)c5)c4)nc3)cn2)CC1 [Example 51, 1-(4-Methyl-piperazin-1-yl)-2-(4-{2-[3-(1-methyl-1H-pyrazol-4-yl)-phenyl]-pyrimidin-5-yl}-pyrazol-1-yl)-ethanone hydrochloride]
29 | 100 to 1000 | Cn1cc(-c2cccc(-c3ncc(-c4cnn(CC(=O)N5CCCOCC5)c4)cn3)c2)cn1 [Example 93, 2-(4-{2-[3-(1-Methyl-1H-pyrazol-4-yl)-phenyl]-pyrimidin-5-yl}-pyrazol-1-yl)-1-[1,4]oxazepan-4-yl-ethanone]
